Columns and labels:
aromatase = biological target: T1, aromatase (Rattus norvegicus, UniProt P22443); experiment: Aromatase inhibition in the rat ovarian microsome assay; format: biochemical; details: rat ovarian microsomes; substrate (androstenedione) concentration 0.1 μM
T1 construct: ovarian microsomes are obtained from rats treated with pregnant mares serum gonadotropin; from tissue; host or cells: ovarian microsomes from rats treated with pregnant mares serum gonadotropin
T1 sequence (P22443 1-508): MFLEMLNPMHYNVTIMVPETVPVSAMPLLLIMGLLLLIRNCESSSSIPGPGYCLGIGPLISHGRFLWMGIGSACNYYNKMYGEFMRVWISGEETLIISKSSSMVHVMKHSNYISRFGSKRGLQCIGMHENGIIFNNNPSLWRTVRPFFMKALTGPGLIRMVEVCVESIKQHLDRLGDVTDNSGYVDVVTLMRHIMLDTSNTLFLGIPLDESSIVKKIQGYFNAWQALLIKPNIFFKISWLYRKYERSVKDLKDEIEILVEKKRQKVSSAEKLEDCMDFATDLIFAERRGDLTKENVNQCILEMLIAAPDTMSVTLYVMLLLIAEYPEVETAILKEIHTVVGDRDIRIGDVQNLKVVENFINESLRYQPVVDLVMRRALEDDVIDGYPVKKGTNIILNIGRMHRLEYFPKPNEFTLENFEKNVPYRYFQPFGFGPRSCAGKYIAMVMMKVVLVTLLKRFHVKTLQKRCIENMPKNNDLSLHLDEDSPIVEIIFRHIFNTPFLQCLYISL
Description: In this test system, ovarian microsomes are obtained from rats treated with pregnant mares serum gonadotropin. Test compounds are added to reaction vials containing 0.1 μM 4-androstene-3,17-dione, 100,000 dpm 1,2[^3 H]-androstenedione, the microsomes and a NADPH generating system. The concentrations of the inhibitors tested ranged between 0.005 and 10 μM.

[1] = system: DMBA-induced mammary tumors; experiment: DMBA-Induced Mammary Tumor Inhibition; format: in vivo, female Sprague-Dawley rats; details: 4 mg/kg daily subcutaneously, Test No. I
Description: Mammary tumors were produced in female Sprague-Dawley rats which were 50-60 days old by the gavage administration of 20 mg of 7,12-dimethylbenz[a]anthracene (DMBA). About six weeks after DMBA administration, the mammary glands were palpated at weekly intervals for the appearance of tumors. Whenever one or more tumors appeared and were measurable in an animal, that animal was selected for experimentation. […] Each control and test group contained 8 animals. The test compound was dissolved in corn oil and administered subcutaneously once daily. Every experiment included a group of control rats having tumors and were given corn oil vehicle subcutaneously. […] The area of each tumor was calculated by multiplying the shortest and longest diameters of the tumor. The treatment and measurement of animals continued for 3 weeks at which time the final areas of the tumors were determined. The change in the mean tumor area was determined, and the mean change was analyzed for its significance using Dunnett's t-test.

Row | SMILES | EC50 (aromatase) [nM] | Mean Tumor Area, Finish ([1]; after 3 weeks, statistically different from control, p < 0.05 (control 392.0)) [mm^2] | Mean Tumor Area, Start ([1]; start of test) [mm^2]
1 | Clc1ccc(C(Cn2ccnc2)OCc2ccsc2Cl)c(Cl)c1 (centres unmarked) [1-(2-[(2-chloro-3-thienyl)-methoxy]-2-[2,4-dichlorophenyl]-ethyl)-1H-imidazole] | 60 | – | –
2 | C=CCOC(Cn1ccnc1)c1ccc(Cl)cc1Cl (centres unmarked) [1-[2-(2,4-dichlorophenyl)-2-(2-propenyloxy)ethyl]-1H-imidazole] | 42 | 119.0 | 55.2
3 | COc1ccc(OC)c(C(O)Cn2ccnc2)c1 (stereo not drawn) [α-(2,5-dimethoxyphenyl)-1H-imidazole-1-ethanol nitrate] | 1500 | – | –
4 | c1ccc(CCn2ccnc2)cc1 [1-(β-phenylethyl)imidazole] | 630 | – | –
5 | O=[N+]([O-])c1ccc(CCn2ccnc2)cc1 [1-[2-(4-nitrophenyl)ethyl]-1H-imidazole] | < 50 | – | –
6 | c1ccc(CCCn2ccnc2)cc1 [1-(3-phenylpropyl)imidazole] | 490 | – | –

From patent US4766140A, “Method of inhibiting aromatase” (Eli Lilly and Company, priority 1984, dated 1988)
